biological target: T1, Trifunctional purine biosynthetic protein adenosine-3 (Mus musculus, UniProt Q64737); experiment: Inhibition of GAR transformylase isolated from the murine lymphoma cell line L5178Y; format: cell-free
T1 sequence (Q64737 whole entry): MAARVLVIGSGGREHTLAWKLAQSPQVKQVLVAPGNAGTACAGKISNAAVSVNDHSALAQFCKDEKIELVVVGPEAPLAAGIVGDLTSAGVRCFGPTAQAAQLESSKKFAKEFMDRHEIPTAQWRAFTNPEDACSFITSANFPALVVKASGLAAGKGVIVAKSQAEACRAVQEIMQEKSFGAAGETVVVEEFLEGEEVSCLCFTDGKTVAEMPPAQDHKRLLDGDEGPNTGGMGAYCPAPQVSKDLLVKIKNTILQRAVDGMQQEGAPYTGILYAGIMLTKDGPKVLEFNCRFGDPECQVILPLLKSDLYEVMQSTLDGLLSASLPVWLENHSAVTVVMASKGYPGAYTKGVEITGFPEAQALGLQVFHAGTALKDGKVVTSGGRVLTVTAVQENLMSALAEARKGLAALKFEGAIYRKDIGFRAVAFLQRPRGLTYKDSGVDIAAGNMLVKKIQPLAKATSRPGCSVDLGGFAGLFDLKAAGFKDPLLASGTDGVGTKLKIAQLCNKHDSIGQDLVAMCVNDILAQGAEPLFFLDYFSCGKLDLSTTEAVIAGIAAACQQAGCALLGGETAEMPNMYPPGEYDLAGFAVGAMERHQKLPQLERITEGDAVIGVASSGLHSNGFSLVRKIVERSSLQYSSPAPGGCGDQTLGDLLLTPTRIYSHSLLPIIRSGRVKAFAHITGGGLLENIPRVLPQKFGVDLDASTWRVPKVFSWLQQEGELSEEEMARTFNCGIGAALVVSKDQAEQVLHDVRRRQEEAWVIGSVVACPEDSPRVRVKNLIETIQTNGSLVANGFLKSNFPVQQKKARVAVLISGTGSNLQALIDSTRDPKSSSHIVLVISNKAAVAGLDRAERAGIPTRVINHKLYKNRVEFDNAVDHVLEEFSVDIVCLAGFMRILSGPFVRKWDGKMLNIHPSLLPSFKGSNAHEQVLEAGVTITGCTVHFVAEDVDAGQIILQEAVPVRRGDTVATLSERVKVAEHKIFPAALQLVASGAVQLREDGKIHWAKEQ

Structure (SMILES) | Ki [µM]
CCN(Cc1ccc2nc(N)nc(O)c2c1)c1ccc(C(=O)NC(CCC(=O)O)C(=O)O)cc1 (configuration not stated) | 16

biological target: T1, Trifunctional purine biosynthetic protein adenosine-3; experiment: Inhibition of GAR transformylase isolated from murine lymphoma cell line L5178Y; format: cell-free

Structure (SMILES) | Ki [µM]
Nc1nc2ccc(CN(CC(=O)O)c3ccc(C(=O)NC(CCC(=O)O)C(=O)O)cc3)cc2c(=O)[nH]1 (configuration not stated) | 5
C#CCN(Cc1ccc2[nH]c(N)nc(=O)c2c1)c1ccc(C(=O)NC(CCC(=O)O)C(=O)O)cc1 (configuration not stated) | 6
Nc1nc(O)c2cc(CN(CC(=O)c3ccccc3)c3ccc(C(=O)NC(CCC(=O)O)C(=O)O)cc3)ccc2n1 (configuration not stated) | 3
Nc1nc2ccc(CN(CCC(=O)O)c3ccc(C(=O)NC(CCC(=O)O)C(=O)O)cc3)cc2c(=O)[nH]1 (configuration not stated) | 32
Nc1nc2ccc(CN(Cc3c[nH]c(=O)[nH]c3=O)c3ccc(C(=O)NC(CCC(=O)O)C(=O)O)cc3)cc2c(=O)[nH]1 (configuration not stated) | 7
Nc1nc2ccc(CN(Cc3cccc(F)c3)c3ccc(C(=O)NC(CCC(=O)O)C(=O)O)cc3)cc2c(=O)[nH]1 (configuration not stated) | 18
N#CCCCN(Cc1ccc2nc(N)nc(O)c2c1)c1ccc(C(=O)NC(CCC(=O)O)C(=O)O)cc1 (configuration not stated) | 11
Nc1nc2ccc(CN(CC3CC3)c3ccc(C(=O)NC(CCC(=O)O)C(=O)O)cc3)cc2c(=O)[nH]1 (configuration not stated) | 8
Nc1nc(O)c2cc(CNc3ccc(C(=O)NC(CCC(=O)O)C(=O)O)cc3)ccc2n1 (configuration not stated) [DIDEAZAFOLATE] | 2
CC(=O)N(Cc1ccc2nc(N)[nH]c(=O)c2c1)c1ccc(C(=O)NC(CCC(=O)O)C(=O)O)cc1 (configuration not stated) | 1.3
CC(C)N(Cc1ccc2nc(N)nc(O)c2c1)c1ccc(C(=O)NC(CCC(=O)O)C(=O)O)cc1 (configuration not stated) | 19
